Experiment [1] relates to L1210. Briefly: Inhibition of [3H]thymidine uptake into L1210 cells at a concentration of 1 uM. The class given is functional. The settings on record: Mus musculus.
Experiment [2] deals with L1210. Briefly: Reduction of [3H]thymidine uptake into L1210 cells at a concentration of 1 uM. In kind it is functional, Mus musculus.
Experiment [3] has as its system L1210. The experiment is described as follows: Compound was tested for inhibition of [3H]thymidine uptake into L1210 cells at a concentration of 10 uM. In kind it is functional. The settings on record: Mus musculus.

Consider `COc1ccc(CNc2nc(OCCO)nc3c(NCc4ccc(OC)cc4)nc(OCCO)nc23)cc1`, for which the inhibition (as a rule, how much of the control response was suppressed) at 1 µM in experiment [1] is 40%. The same compound gave a Reduction in experiment [2] of 30%.
In turn, `OCCN(CCO)c1nc(N2CCCCC2)c2nc(N(CCO)CCO)nc(N3CCCCC3)c2n1` [DIPYRIDAMOLE] gave an inhibition at 1 µM in experiment [1] of 89%. The compound also returned a Reduction in experiment [2] of 96%.
In the same order, the values of `COc1ccc(CN(C)c2nc(NCC(C)O)nc3c(N(C)Cc4ccc(OC)c(OC)c4)nc(NCC(C)O)nc23)cc1OC` (stereo not given) are 73% and 22%.
As to `COc1ccc(CNc2nc(N(CCO)CCO)nc3c(NCc4ccc(OC)cc4)nc(N(CCO)CCO)nc23)cc1`, at 1 µM the inhibition in experiment [1] was 56%. Also, in experiment [2], the Reduction is 18%.
In the same order, the values of `COc1ccc(CNc2nc(NCC(C)O)nc3c(NCc4ccc(OC)cc4)nc(NCC(C)O)nc23)cc1` (stereo not given) are 57% and 45%.
In the same order, the values of `COc1ccc(CN(C)c2nc(OCCCO)nc3c(N(C)Cc4ccc(OC)cc4)nc(OCCCO)nc23)cc1` are 69% and 53%.
The compound `COc1ccc(CNc2nc(OCCCO)nc3c(NCc4ccc(OC)cc4)nc(OCCCO)nc23)cc1` gave an inhibition at 1 µM in experiment [1] of 66%. This compound displayed a Reduction in experiment [2] of 26%.
In the same order, the values of `COc1ccc(CNc2nc(N(CCO)CCO)nc3c(NCc4ccc(OC)c(OC)c4)nc(N(CCO)CCO)nc23)cc1OC` are 71% and 26%.
In the same order, the values of `OCCN(CCO)c1nc(NCc2ccccc2)c2nc(N(CCO)CCO)nc(NCc3ccccc3)c2n1` are 38% and 45%.
The like results for `COc1ccc(CN(C)c2nc(NCC(C)O)nc3c(N(C)Cc4ccc(OC)cc4)nc(NCC(C)O)nc23)cc1` (stereo not given) were, in that order, 39% and 86%.
In the case of `COc1ccc(CN(C)c2nc(N(CCO)CCO)nc3c(N(C)Cc4ccc(OC)cc4)nc(N(CCO)CCO)nc23)cc1`, testing at 1 µM in experiment [1] gave an inhibition of 75%. The same compound came in with a Reduction in experiment [2] of 47%.
In the same order, the values of `COc1ccc(CN(C)c2nc(OCCO)nc3c(N(C)Cc4ccc(OC)cc4)nc(OCCO)nc23)cc1` are 73% and 77%.
In the same order, the values of `COc1ccc(CNc2nc(NCC(C)O)nc3c(NCc4ccc(OC)c(OC)c4)nc(NCC(C)O)nc23)cc1OC` (stereo not given) are 85% and 14%.
As for `OCC(O)COc1nc(N2CCCCC2)c2nc(OCC(O)CO)nc(N3CCCCC3)c2n1` (stereo not given), in experiment [2], the Reduction is 22%. For the same compound, the inhibition at 10 µM in experiment [3] came out at 37%.
In experiment [1], `COc1ccc(CNc2nc(OCCO)nc3c(NCc4ccc(OC)c(OC)c4)nc(OCCO)nc23)cc1OC` came in with an inhibition at 1 µM of 57%. In experiment [2], the Reduction was found to be 23%.

These data come from ChEMBL document CHEMBL1133429, “Resistance-modifying agents. Part 7: 2,6-disubstituted-4,8-dibenzylaminopyrimido[5,4-d]pyrimidines that inhibit nucleoside transport in the presence of alpha1-acid glycoprotein (AGP)” (2000).
